Experimental data: publication PMC7073916, “Potential Tools for Eradicating HIV Reservoirs in the Brain: Development of Trojan Horse Prodrugs for the Inhibition of P-Glycoprotein with Anti-HIV-1 Activity” (Journal of Medicinal Chemistry, 2019)
Where two headings read alike, the source gives them in different places.

Columns and labels:
P-gp [1] = molecular target: T1, P-gp (Homo sapiens, UniProt P08183); test: P-gp substrate accumulation assay (flow cytometry) in hCMEC/D3 cells; assay type: cell-based
Text: (§1) One of the goals of the designed TH heterodimers is to inhibit P-gp-mediated efflux. A substrate accumulation assay was used to evaluate the potency of Aba-S2-NFV1 and Aba-S2-DRV8 as P-gp inhibitors using the P-gp substrates calcein-AM and NBD-Aba.[38],[39] Two cell lines were used to monitor the accumulation of these fluorescent P-gp substrates: 12D7-MDR cells which are CD4+ T lymphocytes with overexpression of P-gp,[40] and hCMEC/D3 cells as an in vitro BBB model cell line.[41] hCMEC/D3 cells are an immortalized human brain capillary endothelial cell line that expresses endogenous levels of P-gp.[42],[43] Inhibition of P-gp efflux was measured by monitoring the increase in cellular fluorescence with added heterodimer by flow cytometry.
(§2) The growth of cells was maintained at 37 °C in 5% CO2. hCMEC/D3 cells were cultured according to literature protocols with minor modifications.[41]
(§3) Flow cytometry was used to estimate P-gp inhibition using a substrate accumulation assay as described previously with some minor changes.[38] […] The cells were harvested by centrifugation at 300g at 4 °C for 7 min. The supernatant was carefully removed, and 400 μL of cold, sterile PBS was added to the cell pellet. […] The mean fluorescence value for each concentration corresponded to 10 000 cells. Each sample was run in duplicate, and all the experiments were run in duplicates on two different days. The average fluorescence accumulated in the cells for samples was used to plot the mean fluorescence vs concentration, and the IC50 values were estimated using GraphPad Prism.

P-gp [2] = molecular target: T1, P-gp; test: P-gp substrate accumulation assay (flow cytometry) in 12D7-MDR cells; assay type: cell-based; design: host or cells: 12D7-MDR cells (CD4+ T lymphocytes, kept under vincristine); details: for IC50: 12D7-MDR cells, 30 min, 1% DMSO
Text: as §1, §2, §3

in vitro = assay type: cell-based; details: human
Description: An MTT assay was used to determine the cell toxicity of Aba-S2-NFV1 and Aba-S2-DRV8 in the 12D7-MDR cell lines after 24 h.[44]
The viability of 12D7-MDR cells in the presence of a TH heterodimer (Aba-S2-NFV1 or Aba-S2-DRV8) was measured using the standard MTT assay.[44] 20 000 12D7-MDR cells were plated in 96-well plate in 100 μL of cell medium. After 12 h, TH heterodimer in medium was added to each well to give a final concentration of 5, 10, and 20 μM (1% DMSO). After 24 h 20 μL of MTT in PBS (5 mg/mL) was added to all the wells and incubated for 2.5 h. The 96-well plates were centrifuged at 300g for 7 min, followed by careful removal of supernatant. 100 μL of DMSO was added to dissolve the formazan. The absorbance of the DMSO solution was read using a plate reader at 590 nm. Cell viability was reported as the ratio of absorbance of cells treated with TH heterodimer relative to cells treated with DMSO.

[3] = Stability of prodrugs in PBS and cell culture media; assay type: physicochemical; details: 37 °C
Description: (§4) To investigate if Aba-S2-NFV1 and Aba-S2-DRV8 are effective against HIV-1 in cells, an in vitro HIV-1 titer assay was performed using the 12D7 cell line. 12D7 cells were infected with HIV-1LAI, and anti-HIV-1 activity was measured by monitoring p24 protein levels as previously described.[45],[46] First the stability of the prodrugs was monitored in PBS and cell culture media using UPLC–MS. […] Therefore, for the cell-based anti-HIV-1 experiments, the medium, with drugs, was changed every 3 days. […] (Figure 2). […] Thus, this difference in chemical connectivity leads to a difference in monomer release that may be responsible for the differences in anti-HIV-1 potency.
The cell media stability studies for the TH heterodimers (Aba-S2-NFV1 or Aba-S2-DRV8) were carried out following a previously published protocol with some modifications.[32] Heterodimers (100 μM) were incubated at 37 °C in the cell medium used for 12D7 cells (complete RPMI 1640 medium with 50 units/mL of penicillin and 50 μg/mL streptomycin, 5 mM of L-glutamine, and 10% FBS) with 1% DMSO. Every 24 h ice-cold acetonitrile with 4-methoxybenzyl alcohol (1.0 mM) was added to an aliquot of the reaction mixture (1:1). The resultant solution was vortexed for 1 min, sonicated for 10 min, and centrifuged twice at 10 000g for 10 min each. The supernatant was stored at −80 °C. All samples were analyzed using a C8 analytical column (Phenomenex, USA) on RP-HPLC with eluent consisting of solvent A (water and 0.05% TFA) and solvent B (acetonitrile and 0.05% TFA). A gradient of 15–75% solvent B over 30 min with a flow rate of 1.2 mL/min and UV detection at 254 nm was used. The assays were performed in duplicate.

HIV-1LAI = test: HIV-1 cell inhibition assay (p24 ELISA) in infected 12D7 cells; assay type: cell-based; details: HIV-1LAI infected 12D7 cells; 6 days; medium with drug changed after 3 days; Figure 2
Description: as §4
12D7 cells were grown in the identical medium for the cell culture medium stability studies. The cells in log-phase were pelleted and resuspended at 1 million cells per mL. 500 TCID50 HIV-1LAI was used to infect cells for 4 h using a known procedure.[45] These infected cells were plated at a density of 75 000 cells per mL in 48-well plates after three washes with the medium. Different concentrations of the compound of interest were added keeping the DMSO concentration at 0.05%. […] On the sixth day, the supernatant was analyzed using ELISA to quantify the amount of HIV-1 p24 (gag) protein generated in each sample.[46] […]

P-gp [4] = details: cited from earlier work
[5] = Reversion of TH heterodimers into monomers in a reducing environment (DTT or GSH), UPLC-MS; assay type: physicochemical; details: ratio of t1/2 values (DTT)
Description: The breakdown of the TH heterodimers with DTT and glutathione (GSH) and the release of monomers were monitored using UPLC–MS at various time points. The reduction of the heterodimers to free thiols occurs rapidly, with full reduction observed within 1 h. Upon appearance of free thiols, the subsequent rearrangement led to the generation of the component monomeric drugs. […] This significant difference in monomer release is likely due to the differences in the chemical connectivity of the monomers. NFV, as described above, is connected to the tether via a phenolic moiety, whereas DRV is linked by a secondary alcohol. The better leaving group ability of the phenol versus the secondary alcohol likely leads to the observed difference in monomer regeneration.
Stability studies with DTT and GSH were adapted from a previously published protocol with some changes.[32] […] When monitoring NFV and DRV release, an aliquot of the reaction mixture was taken at different time points and directly analyzed by UPLC–MS. […] The time points were analyzed using RP-UPLC with a C18 column consisting of solvent A (water and 0.1% formic acid) and solvent B (acetonitrile and 0.1% formic acid), a gradient of 5–95% of solvent B over 10 min, and a flow rate of 0.5 mL/min. […]

[6] = NBD-Aba 5 μM, 30 min, 1% DMSO, read-out: IC50, inhibition of P-gp mediated efflux of NBD-Aba
[7] = calcein-AM 0.25 μM, 30 min, 1% DMSO, read-out: IC50, inhibition of P-gp mediated efflux of calcein-AM
[8] = NBD-Aba 5 μM, read-out: IC50, inhibition of P-gp mediated efflux of NBD-Aba
[9] = calcein-AM 0.25 μM, read-out: IC50, inhibition of P-gp mediated efflux of calcein-AM

T1 sequence (P08183 whole entry): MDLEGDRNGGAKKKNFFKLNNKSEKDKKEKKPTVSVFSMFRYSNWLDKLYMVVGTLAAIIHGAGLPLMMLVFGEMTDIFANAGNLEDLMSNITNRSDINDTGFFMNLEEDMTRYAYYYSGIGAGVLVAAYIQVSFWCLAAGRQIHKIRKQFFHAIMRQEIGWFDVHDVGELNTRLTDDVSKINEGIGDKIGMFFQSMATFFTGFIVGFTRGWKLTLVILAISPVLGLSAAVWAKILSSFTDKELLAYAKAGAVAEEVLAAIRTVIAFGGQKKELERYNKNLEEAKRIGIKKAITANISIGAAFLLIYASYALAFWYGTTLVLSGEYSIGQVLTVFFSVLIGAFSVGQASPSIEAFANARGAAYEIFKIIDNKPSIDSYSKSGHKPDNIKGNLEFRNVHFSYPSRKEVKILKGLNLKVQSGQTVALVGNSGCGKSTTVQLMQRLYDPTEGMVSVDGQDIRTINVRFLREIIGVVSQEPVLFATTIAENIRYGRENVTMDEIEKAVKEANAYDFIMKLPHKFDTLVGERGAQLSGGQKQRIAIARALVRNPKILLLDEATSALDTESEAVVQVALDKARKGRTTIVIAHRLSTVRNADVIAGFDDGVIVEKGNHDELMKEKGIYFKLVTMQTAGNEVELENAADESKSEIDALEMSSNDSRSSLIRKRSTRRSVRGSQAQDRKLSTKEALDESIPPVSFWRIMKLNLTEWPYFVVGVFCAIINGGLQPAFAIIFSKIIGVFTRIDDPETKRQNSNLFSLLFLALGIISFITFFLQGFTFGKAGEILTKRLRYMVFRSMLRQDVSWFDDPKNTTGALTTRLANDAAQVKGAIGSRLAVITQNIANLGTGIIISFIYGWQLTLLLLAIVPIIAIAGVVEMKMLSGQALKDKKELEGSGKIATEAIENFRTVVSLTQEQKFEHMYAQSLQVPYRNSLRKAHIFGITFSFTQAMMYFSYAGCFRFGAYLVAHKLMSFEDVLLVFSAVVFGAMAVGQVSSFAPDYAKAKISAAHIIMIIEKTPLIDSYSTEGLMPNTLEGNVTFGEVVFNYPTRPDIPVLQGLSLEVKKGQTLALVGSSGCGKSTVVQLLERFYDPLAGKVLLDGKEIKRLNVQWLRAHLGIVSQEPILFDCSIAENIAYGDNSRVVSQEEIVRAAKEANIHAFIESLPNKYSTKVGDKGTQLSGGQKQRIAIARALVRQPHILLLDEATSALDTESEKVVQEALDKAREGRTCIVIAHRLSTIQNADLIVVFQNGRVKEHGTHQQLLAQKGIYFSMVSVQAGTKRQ

| IC50 (P-gp [1]; [6]) | IC50 (P-gp [1]; [7]) | IC50 (P-gp [2]; [8]) | IC50 (P-gp [2]; [9]) | SMILES | viability at 24 h, 20 µM (in vitro) | anti-HIV-1 activity (HIV-1 p24 levels) (HIV-1LAI) | further results |
| --- | --- | --- | --- | --- | --- | --- | --- |
| 90 ± 20 nM | 80 ± 20 nM | 510 ± 80 nM | 500 ± 40 nM | CC(C)CN(C[C@@H](OC(=O)CCCSSCCCC(=O)OC[C@@H]1C=C[C@H](n2cnc3c(NC4CC4)nc(N)nc32)C1)[C@H](Cc1ccccc1)NC(=O)O[C@H]1CO[C@H]2OCC[C@H]21)S(=O)(=O)c1ccc(N)cc1 [Aba-S2-DRV8, abacavir-S2-darunavir-8] | 70% | less potent than the 1:1 mixture of Aba and DRV | IC50 (P-gp [1]; calcein-AM and NBD-Aba substrates, read-out: IC50 values, inhibition of P-gp efflux): 80 to 90 nM; stability of prodrug beyond 3 days [3]: decomposition observed after day 4; prodrug intact ([3]; after 3 days): greater than 95% |
| – | – | – | – | Nc1nc(NC2CC2)c2ncn([C@H]3C=C[C@@H](CO)C3)c2n1 [Aba, abacavir] | – | – | increase of brain accumulation in P-gp null mice as compared to wild-type mice (P-gp [4]; P-gp null mice vs wild-type mice): 20 fold |
| 410 ± 60 nM | 590 ± 70 nM | 650 ± 90 nM | 770 ± 50 nM | Cc1c(OC(=O)CCCSSCCCC(=O)OC[C@@H]2C=C[C@H](n3cnc4c(NC5CC5)nc(N)nc43)C2)cccc1C(=O)N[C@@H](CSc1ccccc1)[C@H](O)CN1C[C@H]2CCCC[C@H]2C[C@H]1C(=O)NC(C)(C)C [Aba-S2-NFV1, abacavir-S2-nelfinavir-1] | > 95% | superior potency as compared to Aba-S2-DRV8 | fold faster release of NFV from Aba-S2-NFV1 than DRV release from Aba-S2-DRV8 [5]: 18 fold; prodrug intact ([3]; after 1 week): greater than 95%; fold increase in inhibition of P-gp as compared to the monomeric PI (NFV or DRV) (P-gp [2]; ratio of IC50 values of Table 1, 12D7-MDR and hCMEC/D3 cells, calcein-AM and NBD-Aba): 3- to 12 fold |
| – | – | – | – | Cc1c(O)cccc1C(=O)N[C@@H](CSc1ccccc1)[C@H](O)CN1C[C@H]2CCCC[C@H]2C[C@H]1C(=O)NC(C)(C)C [NFV, nelfinavir] | – | – | increase of brain accumulation in P-gp null mice as compared to wild-type mice (P-gp [4]; mouse, not told): 36 fold |

| SMILES | IC50 (P-gp [1]; [6]) | IC50 (P-gp [1]; [7]) | IC50 (P-gp [2]; [8]) | IC50 (P-gp [2]; [9]) | viability at 24 h, 20 µM (in vitro) | anti-HIV-1 activity (HIV-1 p24 levels) (HIV-1LAI) | further results |
| --- | --- | --- | --- | --- | --- | --- | --- |
| CC(C)CN(C[C@@H](O)[C@H](Cc1ccccc1)NC(=O)O[C@H]1CO[C@H]2OCC[C@H]21)S(=O)(=O)c1ccc(N)cc1 [DRV, darunavir, reference compound] | 15400 ± 3200 nM | 6600 ± 1900 nM | 60000 ± 9400 nM | 33200 ± 6500 nM | – | – | – |
